Measured values as given in ChEMBL document CHEMBL4673215, “Discovery of DS42450411 as a potent orally active hepcidin production inhibitor: Design and optimization of novel 4-aminopyrimidine derivatives” (Bioorg Med Chem Lett, 2018).
Active and inactive are the calls of the source. No cut-off for these calls is given here.

How the values were obtained:
[1] = Inhibition of BMP6-stimulated hepcidin production in human HepG2 cells
[2] = molecular target: Dual specificity tyrosine-phosphorylation-regulated kinase 1A (Homo sapiens, UniProt Q13627); test: Inhibition of DYRK1a (unknown origin)
[3] = molecular target: Dual specificity tyrosine-phosphorylation-regulated kinase 1B (Homo sapiens) (UniProt Q9Y463); test: Inhibition of DYRK1b (unknown origin) at 0.5 uM
Sequence of Dual specificity tyrosine-phosphorylation-regulated kinase 1B (Homo sapiens) (Q9Y463 whole entry, looked up): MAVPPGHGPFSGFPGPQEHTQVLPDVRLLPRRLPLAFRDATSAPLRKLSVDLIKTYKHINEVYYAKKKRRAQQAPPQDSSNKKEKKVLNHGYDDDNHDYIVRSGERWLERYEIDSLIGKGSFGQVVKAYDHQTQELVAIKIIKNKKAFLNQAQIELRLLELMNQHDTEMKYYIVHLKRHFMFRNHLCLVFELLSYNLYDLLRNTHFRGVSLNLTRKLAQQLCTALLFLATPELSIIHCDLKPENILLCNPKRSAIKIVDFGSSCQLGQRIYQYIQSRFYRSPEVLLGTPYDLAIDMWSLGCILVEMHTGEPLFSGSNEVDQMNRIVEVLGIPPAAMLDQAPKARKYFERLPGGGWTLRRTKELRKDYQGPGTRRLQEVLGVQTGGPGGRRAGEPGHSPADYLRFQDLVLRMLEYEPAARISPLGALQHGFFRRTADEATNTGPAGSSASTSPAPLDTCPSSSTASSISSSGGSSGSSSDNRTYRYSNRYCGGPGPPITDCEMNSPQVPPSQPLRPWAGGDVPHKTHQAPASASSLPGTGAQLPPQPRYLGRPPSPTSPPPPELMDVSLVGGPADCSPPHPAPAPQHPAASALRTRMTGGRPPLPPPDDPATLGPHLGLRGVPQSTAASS

[4] = molecular target: Dual specificity protein kinase CLK2 (Homo sapiens) (UniProt P49760); test: Inhibition of CLK2 (unknown origin) at 0.5 uM
Sequence of Dual specificity protein kinase CLK2 (Homo sapiens) (P49760 whole entry, looked up): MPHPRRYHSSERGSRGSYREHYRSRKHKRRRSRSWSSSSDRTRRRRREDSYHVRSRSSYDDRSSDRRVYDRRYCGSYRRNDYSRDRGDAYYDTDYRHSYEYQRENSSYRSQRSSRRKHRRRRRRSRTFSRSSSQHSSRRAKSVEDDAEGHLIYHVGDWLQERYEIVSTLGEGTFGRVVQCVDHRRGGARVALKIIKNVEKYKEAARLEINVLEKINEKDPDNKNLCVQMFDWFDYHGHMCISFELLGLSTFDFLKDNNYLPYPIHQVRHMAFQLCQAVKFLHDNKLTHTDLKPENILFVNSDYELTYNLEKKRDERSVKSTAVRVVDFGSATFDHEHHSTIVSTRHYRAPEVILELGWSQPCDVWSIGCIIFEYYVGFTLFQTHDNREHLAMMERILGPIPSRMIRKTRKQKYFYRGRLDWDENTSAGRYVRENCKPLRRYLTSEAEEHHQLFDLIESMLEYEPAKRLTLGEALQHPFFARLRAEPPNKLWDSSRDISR

[5] = system: Mus musculus; test: Inhibition of IL6-induced hepcidin production in C57BL/6J mouse serum at 30 mg/kg, po administered 30 mins prior to IL6 challenge and measured after 4 hrs; type: functional, organism-based; settings: time 270.0 min
[6] = AUC in C57BL/6J mouse at 30 mg/kg, po; type: ADME, organism-based; parameters: dose 30 mg/kg; settings: in vivo
[7] = Clearance in C57BL/6J mouse at 30 mg/kg, po; type: ADME, organism-based; settings: in vivo
[8] = Half life in C57BL/6J mouse at 30 mg/kg, po; type: ADME, organism-based; settings: in vivo
[9] = Tmax in C57BL/6J mouse at 30 mg/kg, po; type: ADME, organism-based; settings: in vivo
[10] = Protein binding in plasma (unknown origin) assessed as unbound fraction; type: ADME, cell-free
[11] = Cmax in C57BL/6J mouse at 30 mg/kg, po; type: ADME, organism-based; parameters: route oral, dose 30 mg/kg; settings: in vivo
[12] = Lipophilicity, logD of the compound; type: physicochemical; settings: octanol/water
[13] = molecular target: T1, Activin receptor type-1 (Homo sapiens) (UniProt Q04771); test: Inhibition of ALK2 (unknown origin) at 30 uM
T1 sequence (whole entry): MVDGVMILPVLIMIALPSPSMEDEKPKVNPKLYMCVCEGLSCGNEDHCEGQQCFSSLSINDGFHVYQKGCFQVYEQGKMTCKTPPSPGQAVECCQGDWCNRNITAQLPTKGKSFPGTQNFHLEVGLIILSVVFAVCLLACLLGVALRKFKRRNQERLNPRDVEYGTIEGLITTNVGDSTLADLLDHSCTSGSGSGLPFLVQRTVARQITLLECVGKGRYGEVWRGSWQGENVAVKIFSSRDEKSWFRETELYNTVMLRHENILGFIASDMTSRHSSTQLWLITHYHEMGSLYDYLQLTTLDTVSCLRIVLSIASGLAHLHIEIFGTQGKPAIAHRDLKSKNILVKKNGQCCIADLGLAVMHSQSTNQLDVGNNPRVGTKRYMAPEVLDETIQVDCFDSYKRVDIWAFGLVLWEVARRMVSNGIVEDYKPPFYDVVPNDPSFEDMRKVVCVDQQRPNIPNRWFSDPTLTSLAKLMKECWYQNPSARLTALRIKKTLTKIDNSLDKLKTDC

SMILES | IC50 [1] [µM] | also measured
Cc1ccc2c(c1)CC(C)(C)c1c(N)ncnc1-2 | 0.6 | –
CC1(C)Cc2cc(-c3ccccc3)ccc2-c2ncnc(N)c21 | 1.5 | –
COc1ccc2c(c1)CC(C)(C)c1c(N)n[nH]c1-2 | > 30 | –
CC1(C)Cc2cc(OCCO)ccc2-c2ncnc(N)c21 | 1.1 | –
CC(=O)N1CCC(Oc2ccc3c(c2)CC(C)(C)c2c(N)ncnc2-3)CC1 | 0.76 | –
CCOc1ccc2c(c1)CC(C)(C)c1c(N)ncnc1-2 | 0.42 | –
CC1(C)Cc2cc(C3CCNCC3)ccc2-c2ncnc(N)c21 | 0.81 | –
Nc1ncnc2c1CCc1ccccc1-2 | > 30 | IC50 [2]: 57 µM
CC(C)Oc1ccc2c(c1)CC(C)(C)c1c(N)ncnc1-2 | 0.49 | –
Oc1ncnc2c1C1(CCCC1)Cc1ccccc1-2 | > 30 | –
Cc1ccc2c(c1)-c1ncnc(N)c1C(C)(C)C2 | 2.8 | –
Cc1cccc2c1-c1ncnc(N)c1C(C)(C)C2 | 4.7 | –
COc1ccc2c(c1)CC(C)(C)c1c(N)nc(C)nc1-2 | > 5 | –
CC1(C)Cc2ccccc2-c2ncnc(N)c21 | 4.5 | –
C=C(c1ccc2c(c1)CC(C)(C)c1c(N)ncnc1-2)[C@H]1CC[C@H](N(C)C)CC1 | 0.11 | –
CC1(C)Cc2cc(OCC(=O)O)ccc2-c2ncnc(N)c21 | 11 | –
Cc1cccc2c1CC(C)(C)c1c(N)ncnc1-2 | 5 | –
COc1ccc2c(c1)CC(C)(C)c1c-2noc1N | > 30 | –
CNc1ncnc2c1C1(CCCC1)Cc1ccccc1-2 | > 30 | –
CC1(C)Cc2cc(C(=O)C3CCNCC3)ccc2-c2ncnc(N)c21 | 0.3 | –
c1ccc2c(c1)CC1(CCCC1)c1cncnc1-2 | > 30 | –
C=C(c1ccc2c(c1)CC(C)(C)c1c(N)ncnc1-2)[C@H]1CC[C@H](NC)CC1 | 0.045 | –

Further lines, with some results ahead:

IC50 [1] [µM] | SMILES | also measured
0.073 | CC(c1ccc2c(c1)CC(C)(C)c1c(N)ncnc1-2)C1CCNCC1 (racemic) | –
0.031 | C=C(c1ccc2c(c1)CC(C)(C)c1c(N)ncnc1-2)[C@H]1C[C@H](N)C1 | –
0.12 | C=C(c1ccc2c(c1)CC(C)(C)c1c(N)ncnc1-2)C12CC(C1)C2 | –
> 30 | CN(C)c1ncnc2c1C1(CCCC1)Cc1ccccc1-2 | –
0.021 | C=C(c1ccc2c(c1)CC(C)(C)c1c(N)ncnc1-2)C1CCNCC1 | –
0.53 | COc1ccc2c(c1)CC(C)(C)c1c(N)ncnc1-2 | inhibition [3]: Active; inhibition [4]: Active
0.032 | C=C(c1ccc2c(c1)CC(C)(C)c1c(N)ncnc1-2)[C@H]1CC[C@H](N)CC1 | inhibition [5]: Active; AUC [6]: 2580 ng·h/mL; CL/F [7]: 191 mL/min/kg; half-life [8]: 4.59 h; Tmax [9]: 1.17 h; fraction unbound [10]: 0.065; Cmax [11]: 610 ng/mL; logD [12]: 1.6; inhibition [13]: inactive
0.042 | C=C(c1ccc2c(c1)CC(C)(C)c1c(N)ncnc1-2)[C@H]1CCC[C@H](N)C1 | –
11 | COC(=O)c1ccc2c(c1)CC(C)(C)c1c(N)ncnc1-2 | –
0.23 | CC1(C)Cc2cc(OC3CCNCC3)ccc2-c2ncnc(N)c21 | –
0.18 | CC1(C)Cc2cc(OC3CCNC3)ccc2-c2ncnc(N)c21 (configuration not stated) | –
0.24 | CC1(C)Cc2cc(OC3CCCNCC3)ccc2-c2ncnc(N)c21 (configuration not stated) | –
4.2 | Nc1ncnc2c1C1(CCCC1)Cc1ccccc1-2 | –
